Our source for the AC50 values is ChEMBL document CHEMBL5291721, “A preclinical secondary pharmacology resource illuminates target-adverse drug reaction associations of marketed drugs” (Nat Commun, 2023).

Some targets named below: Histamine H1 receptor (Homo sapiens, UniProt P35367); D(3) dopamine receptor (Homo sapiens, UniProt P35462); Histamine H3 receptor (Homo sapiens, UniProt Q9Y5N1).
Assay [1] has as its target T1, Muscarinic acetylcholine receptor M1 (Homo sapiens, UniProt P11229).
T1 sequence (P11229 whole entry): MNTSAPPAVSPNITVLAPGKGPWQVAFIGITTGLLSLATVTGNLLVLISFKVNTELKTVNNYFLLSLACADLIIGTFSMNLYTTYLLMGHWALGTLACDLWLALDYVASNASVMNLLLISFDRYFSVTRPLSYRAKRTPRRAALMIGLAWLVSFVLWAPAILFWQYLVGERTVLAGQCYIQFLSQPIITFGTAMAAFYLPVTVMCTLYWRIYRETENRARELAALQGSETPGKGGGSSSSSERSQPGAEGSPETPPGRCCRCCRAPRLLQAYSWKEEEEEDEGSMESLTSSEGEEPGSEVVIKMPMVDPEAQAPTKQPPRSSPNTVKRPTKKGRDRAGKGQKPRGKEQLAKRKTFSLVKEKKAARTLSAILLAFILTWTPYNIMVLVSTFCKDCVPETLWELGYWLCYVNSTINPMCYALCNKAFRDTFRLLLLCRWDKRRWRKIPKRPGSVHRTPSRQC
It is filed as functional, cell-based.

Assay [2] deals with T2, 5-hydroxytryptamine receptor 2B (Homo sapiens, UniProt P41595). In kind it is functional, cell-based.
T2 sequence (P41595 whole entry): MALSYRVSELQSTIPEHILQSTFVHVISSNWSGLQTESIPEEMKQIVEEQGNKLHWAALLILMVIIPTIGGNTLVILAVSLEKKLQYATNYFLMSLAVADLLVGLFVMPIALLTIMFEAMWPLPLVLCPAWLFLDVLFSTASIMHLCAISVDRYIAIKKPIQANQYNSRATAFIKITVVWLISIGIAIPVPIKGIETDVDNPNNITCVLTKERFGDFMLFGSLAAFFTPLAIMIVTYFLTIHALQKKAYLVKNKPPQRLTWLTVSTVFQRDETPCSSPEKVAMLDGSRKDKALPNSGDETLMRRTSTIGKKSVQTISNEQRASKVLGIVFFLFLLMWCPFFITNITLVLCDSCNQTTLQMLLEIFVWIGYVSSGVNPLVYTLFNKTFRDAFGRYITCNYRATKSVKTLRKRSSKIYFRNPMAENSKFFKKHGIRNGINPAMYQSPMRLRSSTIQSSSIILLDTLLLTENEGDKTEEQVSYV
Assay [3] concerns the target T1, Muscarinic acetylcholine receptor M1. It is filed as functional.
Assay [4] addresses cGMP-inhibited 3',5'-cyclic phosphodiesterase 3A (Homo sapiens, UniProt Q14432). It is filed as functional.
Assay [5] has as its target T3, Muscarinic acetylcholine receptor M2 (Homo sapiens, UniProt P08172).
T3 sequence (P08172 whole entry): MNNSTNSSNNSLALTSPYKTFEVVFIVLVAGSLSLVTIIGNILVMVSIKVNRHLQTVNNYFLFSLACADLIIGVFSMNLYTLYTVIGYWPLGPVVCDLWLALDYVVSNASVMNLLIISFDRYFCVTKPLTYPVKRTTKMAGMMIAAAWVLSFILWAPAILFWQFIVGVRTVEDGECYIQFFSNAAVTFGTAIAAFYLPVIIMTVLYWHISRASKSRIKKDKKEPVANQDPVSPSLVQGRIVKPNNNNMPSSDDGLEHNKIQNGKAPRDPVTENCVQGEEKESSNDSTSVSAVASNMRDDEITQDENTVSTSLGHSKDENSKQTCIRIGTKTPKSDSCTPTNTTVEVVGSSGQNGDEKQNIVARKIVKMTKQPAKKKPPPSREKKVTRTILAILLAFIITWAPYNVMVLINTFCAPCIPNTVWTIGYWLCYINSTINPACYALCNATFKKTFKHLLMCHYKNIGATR

Assay [6] has as its target T4, Alpha-1A adrenergic receptor (Homo sapiens, UniProt P35348).
T4 sequence (P35348 whole entry): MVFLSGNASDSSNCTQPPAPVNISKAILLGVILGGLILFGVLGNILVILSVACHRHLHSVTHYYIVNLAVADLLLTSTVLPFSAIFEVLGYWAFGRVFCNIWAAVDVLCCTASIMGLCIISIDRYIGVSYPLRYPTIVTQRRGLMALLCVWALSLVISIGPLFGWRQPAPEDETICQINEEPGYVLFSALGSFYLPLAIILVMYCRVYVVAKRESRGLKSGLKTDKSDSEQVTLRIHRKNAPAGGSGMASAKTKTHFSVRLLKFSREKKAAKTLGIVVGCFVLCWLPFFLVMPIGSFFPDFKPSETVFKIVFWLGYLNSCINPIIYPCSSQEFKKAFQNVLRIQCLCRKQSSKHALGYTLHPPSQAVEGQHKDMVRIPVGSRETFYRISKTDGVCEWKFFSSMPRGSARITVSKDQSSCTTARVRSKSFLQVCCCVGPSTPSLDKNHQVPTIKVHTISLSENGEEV
In kind it is functional, cell-based.

The target of assay [7] is T4, Alpha-1A adrenergic receptor. It is filed as functional, cell-based. The source holds these as a separate data set.
The next assay concerns the target Cannabinoid receptor 1 (Homo sapiens, UniProt P21554). In kind it is functional, cell-based.
Assay [8] deals with T3, Muscarinic acetylcholine receptor M2. In kind it is functional, cell-based.
For assay [9], the target named is T2, 5-hydroxytryptamine receptor 2B. In kind it is functional, cell-based. This is another data set of the same source.
Assay [10] concerns the target Gamma-aminobutyric acid receptor subunit alpha-1 (Rattus norvegicus, UniProt P62813).

SMILES strings stand for the structures.
Note: assay procedure not described here.

Sequence of cGMP-inhibited 3',5'-cyclic phosphodiesterase 3A (Q14432 whole entry): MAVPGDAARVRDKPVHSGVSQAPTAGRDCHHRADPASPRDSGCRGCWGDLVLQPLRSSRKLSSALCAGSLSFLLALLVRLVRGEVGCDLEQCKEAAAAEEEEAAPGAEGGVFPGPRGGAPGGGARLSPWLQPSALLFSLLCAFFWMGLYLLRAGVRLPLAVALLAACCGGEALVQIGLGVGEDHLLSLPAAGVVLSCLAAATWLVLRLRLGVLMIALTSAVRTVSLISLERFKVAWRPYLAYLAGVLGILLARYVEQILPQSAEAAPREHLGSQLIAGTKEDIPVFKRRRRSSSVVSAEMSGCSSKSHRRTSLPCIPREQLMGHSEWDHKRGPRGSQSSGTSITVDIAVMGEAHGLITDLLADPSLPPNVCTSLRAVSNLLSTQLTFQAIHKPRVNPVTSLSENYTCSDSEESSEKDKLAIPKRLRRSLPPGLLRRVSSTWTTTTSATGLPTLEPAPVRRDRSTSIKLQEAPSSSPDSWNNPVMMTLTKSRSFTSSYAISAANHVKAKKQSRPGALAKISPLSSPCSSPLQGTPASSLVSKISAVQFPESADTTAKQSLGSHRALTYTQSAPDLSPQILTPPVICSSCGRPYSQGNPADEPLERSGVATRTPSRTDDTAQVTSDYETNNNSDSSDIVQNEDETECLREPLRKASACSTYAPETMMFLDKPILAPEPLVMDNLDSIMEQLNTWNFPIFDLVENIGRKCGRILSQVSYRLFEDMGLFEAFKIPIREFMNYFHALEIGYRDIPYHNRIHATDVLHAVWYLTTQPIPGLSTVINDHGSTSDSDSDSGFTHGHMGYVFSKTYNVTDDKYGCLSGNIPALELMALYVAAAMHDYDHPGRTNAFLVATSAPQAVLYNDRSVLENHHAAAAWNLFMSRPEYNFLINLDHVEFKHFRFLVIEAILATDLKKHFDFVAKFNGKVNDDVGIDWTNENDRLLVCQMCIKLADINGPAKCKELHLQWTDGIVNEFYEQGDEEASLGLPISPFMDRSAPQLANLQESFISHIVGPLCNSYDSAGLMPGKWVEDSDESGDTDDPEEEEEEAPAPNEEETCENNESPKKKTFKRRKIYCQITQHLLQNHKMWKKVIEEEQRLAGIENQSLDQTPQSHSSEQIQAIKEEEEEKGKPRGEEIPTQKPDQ
Sequence of D(3) dopamine receptor (P35462 whole entry): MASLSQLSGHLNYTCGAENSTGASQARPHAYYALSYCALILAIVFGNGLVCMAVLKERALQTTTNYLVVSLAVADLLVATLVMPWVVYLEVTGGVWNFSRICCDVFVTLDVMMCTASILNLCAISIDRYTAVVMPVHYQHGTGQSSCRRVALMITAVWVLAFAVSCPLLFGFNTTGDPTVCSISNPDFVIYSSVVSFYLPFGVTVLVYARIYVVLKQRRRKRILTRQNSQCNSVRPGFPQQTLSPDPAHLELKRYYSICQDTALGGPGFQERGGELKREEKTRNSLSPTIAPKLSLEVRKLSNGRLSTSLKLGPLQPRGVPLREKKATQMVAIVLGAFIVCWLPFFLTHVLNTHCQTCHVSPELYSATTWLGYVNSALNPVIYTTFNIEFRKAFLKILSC
Sequence of Histamine H1 receptor (P35367 whole entry): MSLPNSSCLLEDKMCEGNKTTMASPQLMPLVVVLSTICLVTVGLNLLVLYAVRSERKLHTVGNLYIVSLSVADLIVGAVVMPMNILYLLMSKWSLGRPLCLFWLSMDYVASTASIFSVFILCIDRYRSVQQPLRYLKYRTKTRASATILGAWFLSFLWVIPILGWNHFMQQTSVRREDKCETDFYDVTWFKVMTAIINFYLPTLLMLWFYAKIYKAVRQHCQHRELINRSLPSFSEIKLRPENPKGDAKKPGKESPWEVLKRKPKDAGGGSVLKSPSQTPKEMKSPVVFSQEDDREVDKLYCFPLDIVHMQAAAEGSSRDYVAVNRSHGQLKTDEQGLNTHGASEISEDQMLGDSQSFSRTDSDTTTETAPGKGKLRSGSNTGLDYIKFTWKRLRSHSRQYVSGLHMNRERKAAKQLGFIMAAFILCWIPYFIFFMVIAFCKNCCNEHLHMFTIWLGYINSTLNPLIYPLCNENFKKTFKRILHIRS
Sequence of Histamine H3 receptor (Q9Y5N1 whole entry): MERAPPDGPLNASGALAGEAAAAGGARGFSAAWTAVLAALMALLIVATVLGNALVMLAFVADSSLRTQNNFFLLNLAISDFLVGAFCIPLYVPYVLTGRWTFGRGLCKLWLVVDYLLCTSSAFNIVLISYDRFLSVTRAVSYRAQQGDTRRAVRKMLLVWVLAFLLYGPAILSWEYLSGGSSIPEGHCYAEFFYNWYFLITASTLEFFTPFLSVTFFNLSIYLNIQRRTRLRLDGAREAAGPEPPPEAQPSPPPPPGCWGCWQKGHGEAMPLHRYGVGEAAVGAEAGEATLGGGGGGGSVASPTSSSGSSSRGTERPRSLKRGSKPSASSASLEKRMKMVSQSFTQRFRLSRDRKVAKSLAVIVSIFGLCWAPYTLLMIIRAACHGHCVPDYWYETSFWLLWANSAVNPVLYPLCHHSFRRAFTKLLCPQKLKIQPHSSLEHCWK
Sequence of Cannabinoid receptor 1 (P21554 whole entry): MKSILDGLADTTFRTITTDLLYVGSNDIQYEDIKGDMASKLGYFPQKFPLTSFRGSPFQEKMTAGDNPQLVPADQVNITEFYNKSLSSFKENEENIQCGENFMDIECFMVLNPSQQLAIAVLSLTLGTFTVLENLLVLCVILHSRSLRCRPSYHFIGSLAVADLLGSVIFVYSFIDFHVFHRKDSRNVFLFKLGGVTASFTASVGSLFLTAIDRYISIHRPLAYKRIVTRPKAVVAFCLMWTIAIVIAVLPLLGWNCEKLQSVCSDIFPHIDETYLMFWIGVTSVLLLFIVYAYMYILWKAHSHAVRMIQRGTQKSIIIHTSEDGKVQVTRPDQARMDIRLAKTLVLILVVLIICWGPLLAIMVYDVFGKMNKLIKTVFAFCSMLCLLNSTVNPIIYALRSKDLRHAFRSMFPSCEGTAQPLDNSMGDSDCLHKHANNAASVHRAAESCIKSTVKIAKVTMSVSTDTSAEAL
Sequence of Gamma-aminobutyric acid receptor subunit alpha-1 (P62813 whole entry): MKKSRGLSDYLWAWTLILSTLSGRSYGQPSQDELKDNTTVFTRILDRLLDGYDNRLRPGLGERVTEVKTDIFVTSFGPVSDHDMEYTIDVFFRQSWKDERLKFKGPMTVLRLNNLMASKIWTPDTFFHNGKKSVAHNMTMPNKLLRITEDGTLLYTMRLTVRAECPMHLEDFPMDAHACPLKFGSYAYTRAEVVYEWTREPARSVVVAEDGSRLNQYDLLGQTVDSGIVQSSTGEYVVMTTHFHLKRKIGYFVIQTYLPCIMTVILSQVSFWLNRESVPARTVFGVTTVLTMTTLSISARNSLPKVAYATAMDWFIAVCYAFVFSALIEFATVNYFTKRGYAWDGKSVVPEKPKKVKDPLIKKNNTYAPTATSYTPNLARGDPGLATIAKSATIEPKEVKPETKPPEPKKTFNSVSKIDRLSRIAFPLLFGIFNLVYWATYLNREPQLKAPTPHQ

Turning to `CC[C@@H]([C@H](C)O)n1ncn(-c2ccc(N3CCN(c4ccc(OC[C@@H]5CO[C@@](Cn6cncn6)(c6ccc(F)cc6F)C5)cc4)CC3)cc2)c1=O` [POSACONAZOLE], the AC50 (in general, the midpoint of the concentration-response curve, whichever way the signal moves) is above 1 µM in assay [1]; above 30 µM in assay [2]; above 30 µM in assay [3]; above 30 µM on Histamine H1 receptor; above 30 µM in assay [4]; above 30 µM in assay [5]. The AC50 (at D(3) dopamine receptor; in [6]) was above 30 µM each time.

Regarding `C[C@H](Cc1cc2c(c(C(N)=O)c1)N(CCCO)CC2)NCCOc1ccccc1OCC(F)(F)F` [SILODOSIN], the AC50 is 0.0029 µM in [7]; above 30 µM in [1]; above 30 µM in assay [2]; above 30 µM in assay [4]; above 30 µM in assay [5]; 0.0483 µM at D(3) dopamine receptor. Besides, in assay [6], the AC50 was above 30 µM.

As to `CCC(=O)O[C@]1(C(=O)SCF)[C@H](C)C[C@H]2[C@@H]3C[C@H](F)C4=CC(=O)C=C[C@]4(C)[C@@]3(F)[C@@H](O)C[C@@]21C` [FLUTICASONE PROPIONATE], the AC50 (in assay [7]; in assay [1]; at Cannabinoid receptor 1; in assay [8]; in assay [2]; in assay [3]) was above 30 µM in each case. For the same molecule, the AC50 (at Histamine H1 receptor; in assay [9]; in assay [10]; in assay [4]; in assay [5]; at D(3) dopamine receptor) was above 30 µM each time. The AC50 (at Histamine H3 receptor; in [6]) was above 30 µM in each case.
